From US20120121591A1 (priority 2009, published 2012)
Where two headings read alike, the source gives them in different places.

What was measured:
Assay type in all cases: cell-based
hKv1.3 = hKv1.3 (Homo sapiens, UniProt P22001); assay: cell-based; settings: Kv1.3 (IWQ) IC50 (nM, Avg)
[1] = tested on: IFN-g secretion from T cells in human whole blood
[2] = tested on: IL-2 secretion from T cells in human whole blood; settings: read-out: WB (IL-2) IC50 (nM, Avg)
[3] = read-out: WB (IFNg) IC50 (nM, Avg)

Chain of hKv1.3 (P22001 whole entry): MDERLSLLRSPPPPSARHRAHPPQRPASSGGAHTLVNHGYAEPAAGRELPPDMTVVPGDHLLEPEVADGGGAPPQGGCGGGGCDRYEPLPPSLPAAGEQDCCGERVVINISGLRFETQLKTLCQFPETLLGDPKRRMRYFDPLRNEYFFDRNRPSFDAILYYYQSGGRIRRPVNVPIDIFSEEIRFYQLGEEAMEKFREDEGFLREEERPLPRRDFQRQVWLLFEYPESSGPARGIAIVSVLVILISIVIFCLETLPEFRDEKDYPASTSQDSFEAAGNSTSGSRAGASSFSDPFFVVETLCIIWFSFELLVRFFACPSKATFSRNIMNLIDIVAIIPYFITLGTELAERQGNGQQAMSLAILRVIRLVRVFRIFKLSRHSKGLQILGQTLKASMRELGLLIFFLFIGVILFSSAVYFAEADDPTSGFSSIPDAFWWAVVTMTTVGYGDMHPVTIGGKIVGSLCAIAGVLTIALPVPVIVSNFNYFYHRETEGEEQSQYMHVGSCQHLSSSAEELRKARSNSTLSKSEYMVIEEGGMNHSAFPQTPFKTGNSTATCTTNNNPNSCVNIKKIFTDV

Row | Structure (SMILES) | IC50 (hKv1.3) [nM] | IC50 [1, 3] [nM] | IC50 [2] [nM] | IC50 ([1]; read-out: WB (IFNg) IC5- (nM, Avg)) [nM]
1 | CCC[C@@H]1NC(=O)[C@H](CO)NC(=O)[C@H](Cc2c[nH]cn2)NC(=O)[C@H](CCCCN)NC(=O)[C@@H]2CSSC[C@@H]3NC(=O)[C@H]([C@@H](C)O)NC(=O)[C@H](CCCCN)NC(=O)[C@H](CCCNC(=N)N)NC(=O)[C@H](CSSC[C@H](NC(=O)[C@H](CCCNC(=N)N)NC(=O)[C@H](CO)NC(=O)[C@H](CCCCN)NC(=O)[C@@H]4CCCN4C(=O)[C@H]([C@@H](C)CC)NC(=O)[C@H]([C@@H](C)O)NC(=O)[C@H](CC(=O)O)NC(=O)[C@H]([C@@H](C)CC)NC(=O)[C@@H](NC(=O)[C@H](CO)NC(=O)[C@@H](N)CCCNC(=N)N)CSSC[C@@H](C(=O)N[C@@H](CC(=O)O)C(N)=O)NC(=O)[C@H]([C@@H](C)O)NC(=O)CNC3=O)C(=O)N[C@@H]([C@@H](C)O)C(=O)N[C@@H](C)C(=O)N[C@@H](Cc3ccccc3)C(=O)N[C@@H](CCCCN)C(=O)N2)NC(=O)[C@H](Cc2ccccc2)NC(=O)[C@H](CO)NC(=O)[C@H](CC(C)C)NC(=O)[C@H](CCCNC(=N)N)NC(=O)[C@H](Cc2ccc(O)cc2)NC(=O)[C@H](CCCCN)NC1=O [[Lys16,Nva21]ShK-Asp-amide] | 0.28 | 0.349 | 0.255 | 
2 | CC[C@H](C)[C@@H]1NC(=O)[C@@H](NC(=O)[C@H](CO)NC(=O)[C@@H](N)CCCNC(=N)N)CSSC[C@@H](C(=O)O)NC(=O)[C@H]([C@@H](C)O)NC(=O)CNC(=O)[C@@H]2CSSC[C@@H]3NC(=O)[C@H](CCC(N)=O)NC(=O)[C@H](Cc4ccccc4)NC(=O)[C@H](C)NC(=O)[C@H]([C@@H](C)O)NC(=O)[C@H](CSSC[C@H](NC(=O)[C@H](Cc4ccccc4)NC(=O)[C@H](CO)NC(=O)[C@H](CC(C)C)NC(=O)[C@H](CCCNC(=N)N)NC(=O)[C@H](Cc4ccc(O)cc4)NC(=O)[C@H](CCCCN)NC(=O)[C@H](CCSC)NC(=O)[C@H](CO)NC(=O)[C@H](Cc4c[nH]cn4)NC(=O)[C@H](CCCCN)NC3=O)C(=O)N[C@@H](CCCNC(=N)N)C(=O)N[C@@H](CCCNC(=N)N)C(=O)N[C@@H]([C@@H](C)O)C(=O)N2)NC(=O)[C@H](CCCNC(=N)N)NC(=O)[C@H](CO)NC(=O)[C@H](CCCCN)NC(=O)[C@@H]2CCCN2C(=O)[C@H]([C@@H](C)CC)NC(=O)[C@H]([C@@H](C)O)NC(=O)[C@H](CC(=O)O)NC1=O [[Arg30]ShK] | 0.04 | 0.027 | 0.014 | 
3 | CC[C@H](C)[C@@H]1NC(=O)[C@@H](NC(=O)[C@H](CO)NC(=O)[C@@H](N)CCCNC(=N)N)CSSC[C@@H](C(=O)O)NC(=O)[C@H]([C@@H](C)O)NC(=O)CNC(=O)[C@@H]2CSSC[C@@H]3NC(=O)[C@H](CCC(N)=O)NC(=O)[C@H](Cc4ccccc4)NC(=O)[C@H](C)NC(=O)[C@H]([C@@H](C)O)NC(=O)[C@H](CSSC[C@H](NC(=O)[C@H](Cc4ccccc4)NC(=O)[C@H](CO)NC(=O)[C@H](CC(C)C)NC(=O)[C@H](CCCNC(=N)N)NC(=O)[C@H](Cc4ccc(O)cc4)NC(=O)[C@H](CCCCN)NC(=O)[C@H](CCSC)NC(=O)[C@H](CO)NC(=O)[C@H](Cc4c[nH]cn4)NC(=O)[C@H](CCCCN)NC3=O)C(=O)N[C@@H](CCCNC(=N)N)C(=O)N[C@@H](CCC(=O)O)C(=O)N[C@@H]([C@@H](C)O)C(=O)N2)NC(=O)[C@H](CCCNC(=N)N)NC(=O)[C@H](CO)NC(=O)[C@H](CCCCN)NC(=O)[C@@H]2CCCN2C(=O)[C@H]([C@@H](C)CC)NC(=O)[C@H]([C@@H](C)O)NC(=O)[C@H](CC(=O)O)NC1=O [[Glu30]ShK] | 0.272 |  | 0.019 | 0.043
4 | CC[C@H](C)[C@@H]1NC(=O)[C@@H](NC(=O)[C@H](CO)NC(=O)[C@@H](N)CCCNC(=N)N)CSSC[C@@H](C(=O)O)NC(=O)[C@H]([C@@H](C)O)NC(=O)CNC(=O)[C@@H]2CSSC[C@@H]3NC(=O)[C@H](CCC(N)=O)NC(=O)[C@H](Cc4ccccc4)NC(=O)[C@H](CCCNC(=N)N)NC(=O)[C@H]([C@@H](C)O)NC(=O)[C@H](CSSC[C@H](NC(=O)[C@H](Cc4ccccc4)NC(=O)[C@H](CO)NC(=O)[C@H](CC(C)C)NC(=O)[C@H](CCCNC(=N)N)NC(=O)[C@H](Cc4ccc(O)cc4)NC(=O)[C@H](CCCCN)NC(=O)[C@H](CCSC)NC(=O)[C@H](CO)NC(=O)[C@H](Cc4c[nH]cn4)NC(=O)[C@H](CCCCN)NC3=O)C(=O)N[C@@H](CCCNC(=N)N)C(=O)N[C@@H](CCCCN)C(=O)N[C@@H]([C@@H](C)O)C(=O)N2)NC(=O)[C@H](CCCNC(=N)N)NC(=O)[C@H](CO)NC(=O)[C@H](CCCCN)NC(=O)[C@@H]2CCCN2C(=O)[C@H]([C@@H](C)CC)NC(=O)[C@H]([C@@H](C)O)NC(=O)[C@H](CC(=O)O)NC1=O [[Arg14]ShK] | 0.077 | 0.307 | 0.266 | 
5 | CC[C@H](C)[C@@H]1NC(=O)[C@@H](NC(=O)[C@H](CO)NC(=O)[C@@H](N)CCCNC(=N)N)CSSC[C@@H](C(=O)O)NC(=O)[C@H]([C@@H](C)O)NC(=O)CNC(=O)[C@@H]2CSSC[C@@H]3NC(=O)[C@H](CCC(N)=O)NC(=O)[C@H](Cc4ccccc4)NC(=O)[C@H](C)NC(=O)[C@H]([C@@H](C)O)NC(=O)[C@H](CSSC[C@H](NC(=O)[C@H](Cc4ccccc4)NC(=O)[C@H](CO)NC(=O)[C@H](CC(C)C)NC(=O)[C@H](CCCNC(=N)N)NC(=O)[C@H](Cc4ccc(O)cc4)NC(=O)[C@H](CCCCN)NC(=O)[C@H](CCSC)NC(=O)[C@H](CCCNC(=N)N)NC(=O)[C@H](Cc4c[nH]cn4)NC(=O)[C@H](CCCCN)NC3=O)C(=O)N[C@@H](CCCNC(=N)N)C(=O)N[C@@H](CCCCN)C(=O)N[C@@H]([C@@H](C)O)C(=O)N2)NC(=O)[C@H](CCCNC(=N)N)NC(=O)[C@H](CO)NC(=O)[C@H](CCCCN)NC(=O)[C@@H]2CCCN2C(=O)[C@H]([C@@H](C)CC)NC(=O)[C@H]([C@@H](C)O)NC(=O)[C@H](CC(=O)O)NC1=O [[Arg20]ShK] | 3.84 | 31.3 | 36.9 | 
6 | CC[C@H](C)[C@@H]1NC(=O)[C@@H](NC(=O)[C@H](CO)NC(=O)[C@@H](N)CCCNC(=N)N)CSSC[C@@H](C(=O)O)NC(=O)[C@H]([C@@H](C)O)NC(=O)CNC(=O)[C@@H]2CSSC[C@@H]3NC(=O)[C@H](CCN)NC(=O)[C@H](Cc4ccccc4)NC(=O)[C@H](C)NC(=O)[C@H]([C@@H](C)O)NC(=O)[C@H](CSSC[C@H](NC(=O)[C@H](Cc4ccccc4)NC(=O)[C@H](CO)NC(=O)[C@H](CC(C)C)NC(=O)[C@H](CCCNC(=N)N)NC(=O)[C@H](Cc4ccc(O)cc4)NC(=O)[C@H](CCCCN)NC(=O)[C@H](CCSC)NC(=O)[C@H](CO)NC(=O)[C@H](Cc4c[nH]cn4)NC(=O)[C@H](CCCCN)NC3=O)C(=O)N[C@@H](CCCNC(=N)N)C(=O)N[C@@H](CCCCN)C(=O)N[C@@H]([C@@H](C)O)C(=O)N2)NC(=O)[C@H](CCCNC(=N)N)NC(=O)[C@H](CO)NC(=O)[C@H](CCCCN)NC(=O)[C@@H]2CCCN2C(=O)[C@H]([C@@H](C)CC)NC(=O)[C@H]([C@@H](C)O)NC(=O)[C@H](CC(=O)O)NC1=O [[Dab16]ShK] | 0.082 | 0.223 | 0.086 | 
7 | CCC[C@@H]1NC(=O)[C@H](CO)NC(=O)[C@H](Cc2c[nH]cn2)NC(=O)[C@H](CCCCN)NC(=O)[C@@H]2CSSC[C@@H]3NC(=O)[C@H]([C@@H](C)O)NC(=O)[C@H](CCCCN)NC(=O)[C@H](CCCNC(=N)N)NC(=O)[C@H](CSSC[C@H](NC(=O)[C@H](CCCNC(=N)N)NC(=O)[C@H](CO)NC(=O)[C@H](CCCCN)NC(=O)[C@@H]4CCCN4C(=O)[C@H]([C@@H](C)CC)NC(=O)[C@H]([C@@H](C)O)NC(=O)[C@H](CC(=O)O)NC(=O)[C@H](CCC(=O)O)NC(=O)[C@@H](NC(=O)[C@H](CO)NC(=O)[C@@H](N)CCCNC(=N)N)CSSC[C@@H](C(=O)N[C@@H](C)C(=O)O)NC(=O)[C@H]([C@@H](C)O)NC(=O)CNC3=O)C(=O)N[C@@H]([C@@H](C)O)C(=O)N[C@@H](C)C(=O)N[C@@H](Cc3ccccc3)C(=O)N[C@@H](CCCCN)C(=O)N2)NC(=O)[C@H](Cc2ccccc2)NC(=O)[C@H](CO)NC(=O)[C@H](CC(C)C)NC(=O)[C@H](CCCNC(=N)N)NC(=O)[C@H](Cc2ccc(O)cc2)NC(=O)[C@H](CCCCN)NC1=O [[Glu4,Lys16,Nva21]ShK-Ala] | 33.3 | 0.368 | 0.208 | 
8 | CC[C@H](C)[C@@H]1NC(=O)[C@@H](NC(=O)[C@H](CO)NC(=O)[C@@H](N)CCCNC(=N)N)CSSC[C@@H](C(=O)O)NC(=O)[C@H]([C@@H](C)O)NC(=O)CNC(=O)[C@@H]2CSSC[C@@H]3NC(=O)[C@H](CCC(N)=O)NC(=O)[C@H](Cc4ccccc4)NC(=O)[C@H](C)NC(=O)[C@H]([C@@H](C)O)NC(=O)[C@H](CSSC[C@H](NC(=O)[C@H](Cc4ccccc4)NC(=O)[C@H](CO)NC(=O)[C@H](CC(C)C)NC(=O)[C@H](CCCNC(=N)N)NC(=O)[C@H](Cc4ccc(O)cc4)NC(=O)[C@H](CCCCN)NC(=O)[C@H](CCSC)NC(=O)[C@H](CO)NC(=O)[C@H](Cc4c[nH]cn4)NC(=O)[C@H](CCCCN)NC3=O)C(=O)N[C@@H](Cc3cccc4ccccc34)C(=O)N[C@@H](CCCCN)C(=O)N[C@@H]([C@@H](C)O)C(=O)N2)NC(=O)[C@H](CCCNC(=N)N)NC(=O)[C@H](CO)NC(=O)[C@H](CCCCN)NC(=O)[C@@H]2CCCN2C(=O)[C@H]([C@@H](C)CC)NC(=O)[C@H]([C@@H](C)O)NC(=O)[C@H](CC(=O)O)NC1=O [[1-Nal29]ShK] | 3.3 | 8.08 | 4.72 | 
